According to PMC11822212, “High-throughput screening identifies Aurora kinase B as a critical therapeutic target for Merkel cell carcinoma” (Nature Communications, 2025):
Counter-ions that a name gives are not always drawn. Like-named read-outs stand apart in the source and are kept apart here.

What was measured:
[1] = test system: NIH-3T3 cells; assay: qHTS cell viability (CellTiter-Glo, 72 h; primary screen), control cell line; assay type: cell-based, mouse
[2] = test system: CRL-7250 cells; assay: as above; assay type: cell-based
[3] = test system: VP-MCC cell lines (WAGA, MKL-1, MKL-2); assay: qHTS cell viability, VP-MCC cell lines as a group (mean AUC, VP.MCC.avg); assay type: cell-based, human
[4] = test system: MKL-1 cells (VP-MCC); assay: qHTS cell viability (CellTiter-Glo, 72 h; primary and follow-up small molecule screen); assay type: cell-based, human
[5] = test system: control cell lines (HACAT, HEK293T, CRL-7250, NIH-3T3); assay: qHTS cell viability, control cell lines as a group (mean AUC, Control.avg); assay type: cell-based
[6] = test system: MKL-2 cells (VP-MCC); assay: qHTS cell viability (CellTiter-Glo, 72 h; primary and follow-up small molecule screen); assay type: cell-based, human
[7] = test system: MCC26 cells (VN-MCC); assay: as above; assay type: cell-based, human
[8] = test system: six MCC cell lines and four control cell lines; assay: qHTS cell viability, all 10 cell lines screened; assay type: cell-based
[9] = test system: HACAT cells; assay: qHTS cell viability (CellTiter-Glo, 72 h; primary screen), control cell line; assay type: cell-based, human
[10] = test system: VN-MCC cell lines (MCC13, MCC26, UISO); assay: qHTS cell viability, VN-MCC cell lines as a group (mean AUC, VN.MCC.avg); assay type: cell-based, human
[11] = test system: UISO cells (VN-MCC); assay: qHTS cell viability (CellTiter-Glo, 72 h; primary and follow-up small molecule screen); assay type: cell-based, human
[12] = test system: HEK293T cells; assay: qHTS cell viability (CellTiter-Glo, 72 h; primary screen), control cell line; assay type: cell-based, human
[13] = test system: MCC13 cells (VN-MCC); assay: qHTS cell viability (CellTiter-Glo, 72 h; primary and follow-up small molecule screen); assay type: cell-based, human
[14] = test system: MCC cell lines (WAGA, MKL-1, MKL-2, MCC13, MCC26, UISO); assay: qHTS cell viability, all six MCC cell lines as a group (mean AUC, MCC.avg); assay type: cell-based, human
[15] = test system: WAGA cells (VP-MCC); assay: qHTS cell viability (CellTiter-Glo, 72 h; primary and follow-up small molecule screen); assay type: cell-based, human
[16] = test system: MKL-2 cells (VP-MCC); assay type: cell-based, human
Protocol: (§1) A non-targeting control (Silencer Select Negative Control No. 2 siRNA) and a positive control (AllStars Cell Death Control siRNA) were used as controls. Lipofectamine RNAiMax (Thermo Fisher Scientific, Grand Island, NY) was obtained as the transfection reagent. […] Three siRNAs per gene were arrayed in 384 well plates, one siRNA per well. […] Cell viability was measured by CellTiter-Glo assay following the manufacturer's instructions (G7572; Promega, Madison, WI, USA) 96 h after siRNA transfection. Assay plates were measured using BMG Pherastar plate reader Three different siRNAs (sequences: [NT], and [NT] targeting INCENP as well as negative non-targeting siRNA control were purchased from Thermo Fisher Scientific (Grand Island, NY).

[17] = test system: MCC26 cells (VN-MCC); assay type: cell-based, human
Protocol: as §1

[18] = MIPE library, 11-point DRC, control cell line, sheet S2D
[19] = MIPE library, 11-point DRC, control cell line, sheet S2E
[20] = MIPE library, Control AUC minus VP-MCC AUC (therapeutic window), sheet S2D
[21] = MIPE library, Control AUC minus VP-MCC AUC (therapeutic window), sheet S2E
[22] = MIPE library, mean AUC of VP-MCC cell lines, sheet S2D
[23] = MIPE library, mean AUC of VP-MCC cell lines, sheet S2E
[24] = MIPE library, 11-point DRC, sheet S2D
[25] = MIPE library, 11-point DRC, sheet S2E
[26] = MIPE library, mean AUC of control cell lines, sheet S2D
[27] = MIPE library, mean AUC of control cell lines, sheet S2E
[28] = MIPE library, Control AUC minus MCC AUC (therapeutic window), sheet S2D
[29] = MIPE library, Control AUC minus MCC AUC (therapeutic window), sheet S2E
[30] = MIPE library, Control AUC minus VN-MCC AUC (therapeutic window), sheet S2D
[31] = MIPE library, Control AUC minus VN-MCC AUC (therapeutic window), sheet S2E
[32] = MIPE library, mean AUC of VN-MCC cell lines, sheet S2D
[33] = MIPE library, mean AUC of VN-MCC cell lines, sheet S2E
[34] = MIPE library, mean AUC of six MCC cell lines, sheet S2D
[35] = MIPE library, mean AUC of six MCC cell lines, sheet S2E

## CC[C@@]1(O)C(=O)OCc2c1cc1n(c2=O)Cc2cc3c(CN(C)C)c(O)ccc3nc2-1 [Topotecan HCl]
[1]; [18]
  NIH3T3_AUC: 368.835
[1]; [19]
  NIH3T3_AUC: 368.835
[1]; NPC library, qHTS dose-response AUC, NIH3T3 control
  NIH3T3_AUC: 374.778
[2]; [18]
  CRL7250_AUC: 391.937
[2]; [19]
  CRL7250_AUC: 391.937
[2]; NPC library, qHTS dose-response AUC, CRL7250 control
  CRL7250_AUC: 360.108
[3]; [20]
  Control-VP-MCC: 112.898
[3]; [21]
  Control-VP-MCC: 112.898
[3]; [22]
  VP-MCC_Avg_AUC: 232.226
[3]; [23]
  VP-MCC_Avg_AUC: 232.226
[3]; NPC library, mean AUC of VP-MCC cell lines
  VP-MCC_Avg_AUC: 166.29
[3]; NPC library, therapeutic window: Control avg AUC minus VP-MCC avg AUC
  Control-VP-MCC: 134.37
[4]; [24]
  MKL1_AUC: 269.988
[4]; [25]
  MKL1_AUC: 269.988
[4]; NPC library, qHTS dose-response AUC, MKL1
  MKL1_AUC: 185.429
[4]; follow-up screen, MKL-1, replicate 1
  Area under the dose-response curve (AUC) MKL-1 Replicate 1: 222.0
[4]; follow-up screen, MKL-1, replicate 2
  Area under the dose-response curve (AUC) MKL-1 Replicate 2: 224.3
[4]; follow-up screen, MKL-1, replicate 3
  Area under the dose-response curve (AUC) MKL-1 Replicate 3: 226.9
[5]; [26]
  Control_Avg_AUC: 345.124
[5]; [27]
  Control_Avg_AUC: 345.124
[5]; NPC library, mean AUC of control cell lines
  Control_Avg_AUC: 300.661
[6]; [24]
  MKL2_AUC: 250.703
[6]; [25]
  MKL2_AUC: 250.703
[6]; NPC library, qHTS dose-response AUC, MKL2
  MKL2_AUC: 174.677
[6]; follow-up screen, MKL-2, replicate 1
  Area under the dose-response curve (AUC) MKL-2 Replicate 1: 184.1
[6]; follow-up screen, MKL-2, replicate 2
  Area under the dose-response curve (AUC) MKL-2 Replicate 2: 181.9
[6]; follow-up screen, MKL-2, replicate 3
  Area under the dose-response curve (AUC) MKL-2 Replicate 3: 262.9
[7]; [24]
  MCC26_AUC: 328.226
[7]; [25]
  MCC26_AUC: 328.226
[7]; NPC library, qHTS dose-response AUC, MCC26
  MCC26_AUC: 267.734
[7]; follow-up screen, MCC26, replicate 1
  Area under the dose-response curve (AUC) MCC26 Replicate 1: 273.0
[7]; follow-up screen, MCC26, replicate 2
  Area under the dose-response curve (AUC) MCC26 Replicate 2: 257.6
[7]; follow-up screen, MCC26, replicate 3
  Area under the dose-response curve (AUC) MCC26 Replicate 3: 280.5
[8]; [28]
  Control-MCC: 77.6607
[8]; [29]
  Control-MCC: 77.6607
[8]; NPC library, therapeutic window: Control avg AUC minus MCC avg AUC
  Control-MCC: 81.3959
[9]; [18]
  HACAT_AUC: 331.992
[9]; [19]
  HACAT_AUC: 331.992
[9]; NPC library, qHTS dose-response AUC, HACAT control
  HACAT_AUC: 242.195
[10]; [30]
  Control-VN-MCC: 42.4232
[10]; [31]
  Control-VN-MCC: 42.4232
[10]; [32]
  VN-MCC_Avg_AUC: 302.701
[10]; [33]
  VN-MCC_Avg_AUC: 302.701
[10]; NPC library, mean AUC of VN-MCC cell lines
  VN-MCC_Avg_AUC: 272.239
[10]; NPC library, therapeutic window: Control avg AUC minus VN-MCC avg AUC
  Control-VN-MCC: 28.4215
[11]; [24]
  UISO_AUC: 243.367
[11]; [25]
  UISO_AUC: 243.367
[11]; NPC library, qHTS dose-response AUC, UISO
  UISO_AUC: 244.938
[11]; follow-up screen, UISO, replicate 1
  Area under the dose-response curve (AUC) UISO Replicate 1: 203.8
[11]; follow-up screen, UISO, replicate 2
  Area under the dose-response curve (AUC) UISO Replicate 2: 226.9
[11]; follow-up screen, UISO, replicate 3
  Area under the dose-response curve (AUC) UISO Replicate 3: 223.1
[12]; [18]
  HEK293T_AUC: 287.732
[12]; [19]
  HEK293T_AUC: 287.732
[12]; NPC library, qHTS dose-response AUC, HEK293T control
  HEK293T_AUC: 225.562
[13]; [24]
  MCC13_AUC: 336.51
[13]; [25]
  MCC13_AUC: 336.51
[14]; [34]
  MCC_Avg_AUC: 267.463
[14]; [35]
  MCC_Avg_AUC: 267.463
[14]; NPC library, mean AUC of six MCC cell lines
  MCC_Avg_AUC: 219.265
[15]; [24]
  WAGA_AUC: 175.987
[15]; [25]
  WAGA_AUC: 175.987
[15]; NPC library, qHTS dose-response AUC, WAGA
  WAGA_AUC: 138.765
[15]; follow-up screen, WAGA, replicate 1
  Area under the dose-response curve (AUC) WAGA Replicate 1: 206.9
[15]; follow-up screen, WAGA, replicate 2
  Area under the dose-response curve (AUC) WAGA Replicate 2: 188.0
[15]; follow-up screen, WAGA, replicate 3
  Area under the dose-response curve (AUC) WAGA Replicate 3: 185.4

## C=Cc1c(C)c2cc3nc(cc4[nH]c(cc5nc(cc1[nH]2)C(C)=C5CCC(=O)O)c(CCC(=O)OC)c4C)[C@@]1(C)C3=CC=C(C(=O)OC)[C@H]1C(=O)OC [Verteporfin]
[1]; [18]
  NIH3T3_AUC: 474.512
[1]; [19]
  NIH3T3_AUC: 474.512
[2]; [18]
  CRL7250_AUC: 465.081
[2]; [19]
  CRL7250_AUC: 465.081
[3]; [20]
  Control-VP-MCC: 208.806
[3]; [21]
  Control-VP-MCC: 208.806
[3]; [22]
  VP-MCC_Avg_AUC: 254.477
[3]; [23]
  VP-MCC_Avg_AUC: 254.477
[4]; [24]
  MKL1_AUC: 279.212
[4]; [25]
  MKL1_AUC: 279.212
[5]; [26]
  Control_Avg_AUC: 463.283
[5]; [27]
  Control_Avg_AUC: 463.283
[6]; [24]
  MKL2_AUC: 217.219
[6]; [25]
  MKL2_AUC: 217.219
[7]; [24]
  MCC26_AUC: 397.153
[7]; [25]
  MCC26_AUC: 397.153
[8]; [28]
  Control-MCC: 151.157
[8]; [29]
  Control-MCC: 151.157
[9]; [18]
  HACAT_AUC: 478.04
[9]; [19]
  HACAT_AUC: 478.04
[10]; [30]
  Control-VN-MCC: 93.5089
[10]; [31]
  Control-VN-MCC: 93.5089
[10]; [32]
  VN-MCC_Avg_AUC: 369.774
[10]; [33]
  VN-MCC_Avg_AUC: 369.774
[11]; [24]
  UISO_AUC: 271.383
[11]; [25]
  UISO_AUC: 271.383
[12]; [18]
  HEK293T_AUC: 435.497
[12]; [19]
  HEK293T_AUC: 435.497
[13]; [24]
  MCC13_AUC: 440.785
[13]; [25]
  MCC13_AUC: 440.785
[14]; [34]
  MCC_Avg_AUC: 312.125
[14]; [35]
  MCC_Avg_AUC: 312.125
[15]; [24]
  WAGA_AUC: 266.998
[15]; [25]
  WAGA_AUC: 266.998

## CCOc1cc(N2CCC(O)CC2)ccc1Nc1ncc2c(n1)N(C)c1ccccc1C(=O)N2C [XMD8-92]
[1]
  NIH3T3_AUC: 462.049
[2]
  CRL7250_AUC: 459.588
[3]
  Control-VP-MCC: 68.2382
  VP-MCC_Avg_AUC: 390.829
[4]
  MKL1_AUC: 404.412
[5]
  Control_Avg_AUC: 459.068
[6]
  MKL2_AUC: 364.829
[7]
  MCC26_AUC: 462.249
[8]
  Control-MCC: 31.2771
[9]
  HACAT_AUC: 464.723
[10]
  Control-VN-MCC: -5.684
  VN-MCC_Avg_AUC: 464.751
[11]
  UISO_AUC: 455.545
[12]
  HEK293T_AUC: 449.91
[13]
  MCC13_AUC: 476.46
[14]
  MCC_Avg_AUC: 427.79
[15]
  WAGA_AUC: 403.248

## AAAUGUUGAUCUCCUUUCC (chemistry not given here)
[16]
  Percent viability: 84.7%
[17]
  Percent viability: 97.2%

## AGAUCAACCCAGAUAACUAtt (AGAUCAACCCAGAUAACUATT; chemistry not given here)
[16]
  Percent viability: 48.5%
[17]
  Percent viability: 73.1%
